Experimental data: patent US20240254124A1, “AZAINDOLE ROCK INHIBITORS” (priority 2022, published 2024)

Legend:
[1] = 24 hour mouse pharmacokinetics; type: in vivo, B6SJLF1/J mice
Method: Groups 2, 3, 4, 6, and 8: Test article was dissolved in a minimal amount of DMSO (Groups 2, 4, 6, 8: 40-50 μL, Group 3: 100 μL), 0.5% methylcellulose was added to final volume, then solution was sonicated for 2 minutes.
Group 7: Test article was dissolved in 100 μL DMSO, saline was added to final volume, then solution was sonicated for 2 minutes.
Groups 1, 5: The test article was administered as a single dose via slow bolus intravenous administration into a lateral tail vein, with a 27G needle.
Groups 2, 4, 6, 7, 8: The test article was administered as a single dose directly to the stomach by oral gavage.
Group 3: The test article was administered as a single dose in two parts with an approximate 1-2-minute rest between due to volume administered.
Approximately 150 μL of blood was collected by tail nick for the first time point and then the maximal volume by cardiac stick for the second, terminal time point in each mouse. The plasma was spun and separated within 30 minutes of collection and stored frozen at −20° C. until shipment.
Prior to the terminal blood collection, CSF was collected. […] The resulting data is shown in Tables 13, 14, 15, 16 and 17 below.

[2] = 24 hour rat pharmacokinetics; conditions: male
[3] = molecular target: ROCK2 (Homo sapiens (Human), UniProt O75116); assay: ROCK2 inhibition assay (HotSpot, 33P-ATP); type: biochemical
[4] = molecular target: hERG (Homo sapiens (Human), UniProt Q12809); assay: biochemical
[5] = molecular target: PRKX (Homo sapiens (Human), UniProt P51817); assay: PRKX inhibition assay (HotSpot, 33P-ATP); type: biochemical; conditions: Table 2B; 10 μM ATP; Compound 1 is geometric mean of multiple experiments
Method: (§1) Compounds as a powder were dissolved in dimethyl sulfoxide to make a 10 mM stock. […] The HotSpot kit employing ^33P-ATP was used with reactions conducted at 10 μM ATP for each tested enzyme. The percent activity relative to DMSO controls for each concentration was then fitted to a curve using GraphPad Prism to determine the IC50. […] Each experiment was run in the same lab with this procedure.

[6] = molecular target: ROCK1 (Homo sapiens (Human), UniProt Q13464); assay: ROCK1 inhibition assay (HotSpot, 33P-ATP); type: biochemical; conditions: Table 2A; 10 μM ATP
[7] = molecular target: PKA (Homo sapiens (Human), UniProt P17612); assay: PKA inhibition assay (HotSpot, 33P-ATP); type: biochemical; conditions: Table 2B; 10 μM ATP; Compound 1 is geometric mean of multiple experiments
Method: as §1

Chain of ROCK2 (O75116 whole entry): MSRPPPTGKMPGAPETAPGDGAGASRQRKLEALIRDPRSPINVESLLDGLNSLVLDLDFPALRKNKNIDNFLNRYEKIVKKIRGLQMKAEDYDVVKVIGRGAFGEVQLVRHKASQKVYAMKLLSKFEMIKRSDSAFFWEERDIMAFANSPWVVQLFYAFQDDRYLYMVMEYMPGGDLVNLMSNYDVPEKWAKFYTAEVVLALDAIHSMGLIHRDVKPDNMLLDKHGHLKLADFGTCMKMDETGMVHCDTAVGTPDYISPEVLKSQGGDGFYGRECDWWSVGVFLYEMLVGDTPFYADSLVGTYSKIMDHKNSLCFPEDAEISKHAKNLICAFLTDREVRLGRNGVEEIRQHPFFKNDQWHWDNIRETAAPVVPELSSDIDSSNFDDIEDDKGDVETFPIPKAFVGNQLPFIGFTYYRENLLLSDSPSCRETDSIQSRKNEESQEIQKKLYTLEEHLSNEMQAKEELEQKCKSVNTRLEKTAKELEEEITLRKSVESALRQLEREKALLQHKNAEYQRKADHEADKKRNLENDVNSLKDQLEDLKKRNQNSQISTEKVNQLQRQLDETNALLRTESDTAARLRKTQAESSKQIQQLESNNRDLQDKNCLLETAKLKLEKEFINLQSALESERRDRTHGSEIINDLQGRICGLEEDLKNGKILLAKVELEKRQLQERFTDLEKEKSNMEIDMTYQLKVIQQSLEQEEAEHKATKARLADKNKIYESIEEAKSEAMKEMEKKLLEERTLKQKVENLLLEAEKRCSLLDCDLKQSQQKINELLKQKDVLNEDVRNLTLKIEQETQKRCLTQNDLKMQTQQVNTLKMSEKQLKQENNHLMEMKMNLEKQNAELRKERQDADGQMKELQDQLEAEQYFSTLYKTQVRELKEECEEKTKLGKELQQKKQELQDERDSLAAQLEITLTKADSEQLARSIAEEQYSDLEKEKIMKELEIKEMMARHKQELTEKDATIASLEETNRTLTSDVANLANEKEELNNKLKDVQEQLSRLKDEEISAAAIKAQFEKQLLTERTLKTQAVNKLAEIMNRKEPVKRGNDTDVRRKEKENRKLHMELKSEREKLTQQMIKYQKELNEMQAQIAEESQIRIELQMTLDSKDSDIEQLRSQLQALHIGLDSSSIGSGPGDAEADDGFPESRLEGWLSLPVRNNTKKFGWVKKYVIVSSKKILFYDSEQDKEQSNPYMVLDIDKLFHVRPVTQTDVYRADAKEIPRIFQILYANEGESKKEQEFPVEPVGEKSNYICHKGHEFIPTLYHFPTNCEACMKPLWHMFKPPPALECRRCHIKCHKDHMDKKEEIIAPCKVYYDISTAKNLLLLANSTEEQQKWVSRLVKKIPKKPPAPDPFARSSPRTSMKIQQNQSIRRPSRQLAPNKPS
Chain of hERG (Q12809 whole entry): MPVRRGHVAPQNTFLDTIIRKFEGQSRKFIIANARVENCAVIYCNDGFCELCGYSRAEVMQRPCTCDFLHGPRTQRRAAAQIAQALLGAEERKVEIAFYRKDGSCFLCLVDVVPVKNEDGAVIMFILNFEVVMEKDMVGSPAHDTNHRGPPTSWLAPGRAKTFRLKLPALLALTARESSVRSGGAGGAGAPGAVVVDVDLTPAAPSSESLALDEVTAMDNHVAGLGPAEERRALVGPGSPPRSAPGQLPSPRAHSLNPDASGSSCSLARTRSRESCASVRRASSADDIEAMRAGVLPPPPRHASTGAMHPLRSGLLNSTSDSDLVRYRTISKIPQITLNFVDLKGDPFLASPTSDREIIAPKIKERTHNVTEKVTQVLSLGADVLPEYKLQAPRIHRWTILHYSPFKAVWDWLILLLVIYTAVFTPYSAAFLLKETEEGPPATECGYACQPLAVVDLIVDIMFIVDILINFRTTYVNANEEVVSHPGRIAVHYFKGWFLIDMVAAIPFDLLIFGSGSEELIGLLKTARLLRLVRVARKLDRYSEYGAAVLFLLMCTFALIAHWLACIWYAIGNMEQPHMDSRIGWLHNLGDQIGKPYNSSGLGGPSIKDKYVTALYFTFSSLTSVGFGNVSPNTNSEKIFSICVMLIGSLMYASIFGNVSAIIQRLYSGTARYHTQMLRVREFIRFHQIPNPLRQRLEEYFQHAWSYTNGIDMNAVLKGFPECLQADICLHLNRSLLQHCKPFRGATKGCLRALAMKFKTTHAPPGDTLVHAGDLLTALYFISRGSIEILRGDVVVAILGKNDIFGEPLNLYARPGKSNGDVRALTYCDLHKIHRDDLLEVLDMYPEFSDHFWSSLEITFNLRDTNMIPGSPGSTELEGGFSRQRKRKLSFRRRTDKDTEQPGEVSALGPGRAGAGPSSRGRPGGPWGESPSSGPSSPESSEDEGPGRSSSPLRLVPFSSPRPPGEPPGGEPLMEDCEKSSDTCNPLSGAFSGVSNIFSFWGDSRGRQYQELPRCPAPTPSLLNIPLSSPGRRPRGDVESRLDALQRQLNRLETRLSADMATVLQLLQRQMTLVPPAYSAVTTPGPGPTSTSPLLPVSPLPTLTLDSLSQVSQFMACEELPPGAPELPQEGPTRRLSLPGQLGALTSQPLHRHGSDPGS
Chain of PRKX (P51817 whole entry): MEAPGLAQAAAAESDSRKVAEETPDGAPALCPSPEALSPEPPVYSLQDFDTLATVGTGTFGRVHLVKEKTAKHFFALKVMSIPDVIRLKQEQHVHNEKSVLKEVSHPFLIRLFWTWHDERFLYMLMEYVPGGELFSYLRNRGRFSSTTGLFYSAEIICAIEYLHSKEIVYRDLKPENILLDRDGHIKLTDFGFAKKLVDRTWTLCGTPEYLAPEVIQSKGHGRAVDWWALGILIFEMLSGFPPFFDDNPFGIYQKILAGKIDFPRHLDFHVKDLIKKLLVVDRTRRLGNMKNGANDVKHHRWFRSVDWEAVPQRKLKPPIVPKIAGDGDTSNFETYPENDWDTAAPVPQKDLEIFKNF
Chain of ROCK1 (Q13464 whole entry): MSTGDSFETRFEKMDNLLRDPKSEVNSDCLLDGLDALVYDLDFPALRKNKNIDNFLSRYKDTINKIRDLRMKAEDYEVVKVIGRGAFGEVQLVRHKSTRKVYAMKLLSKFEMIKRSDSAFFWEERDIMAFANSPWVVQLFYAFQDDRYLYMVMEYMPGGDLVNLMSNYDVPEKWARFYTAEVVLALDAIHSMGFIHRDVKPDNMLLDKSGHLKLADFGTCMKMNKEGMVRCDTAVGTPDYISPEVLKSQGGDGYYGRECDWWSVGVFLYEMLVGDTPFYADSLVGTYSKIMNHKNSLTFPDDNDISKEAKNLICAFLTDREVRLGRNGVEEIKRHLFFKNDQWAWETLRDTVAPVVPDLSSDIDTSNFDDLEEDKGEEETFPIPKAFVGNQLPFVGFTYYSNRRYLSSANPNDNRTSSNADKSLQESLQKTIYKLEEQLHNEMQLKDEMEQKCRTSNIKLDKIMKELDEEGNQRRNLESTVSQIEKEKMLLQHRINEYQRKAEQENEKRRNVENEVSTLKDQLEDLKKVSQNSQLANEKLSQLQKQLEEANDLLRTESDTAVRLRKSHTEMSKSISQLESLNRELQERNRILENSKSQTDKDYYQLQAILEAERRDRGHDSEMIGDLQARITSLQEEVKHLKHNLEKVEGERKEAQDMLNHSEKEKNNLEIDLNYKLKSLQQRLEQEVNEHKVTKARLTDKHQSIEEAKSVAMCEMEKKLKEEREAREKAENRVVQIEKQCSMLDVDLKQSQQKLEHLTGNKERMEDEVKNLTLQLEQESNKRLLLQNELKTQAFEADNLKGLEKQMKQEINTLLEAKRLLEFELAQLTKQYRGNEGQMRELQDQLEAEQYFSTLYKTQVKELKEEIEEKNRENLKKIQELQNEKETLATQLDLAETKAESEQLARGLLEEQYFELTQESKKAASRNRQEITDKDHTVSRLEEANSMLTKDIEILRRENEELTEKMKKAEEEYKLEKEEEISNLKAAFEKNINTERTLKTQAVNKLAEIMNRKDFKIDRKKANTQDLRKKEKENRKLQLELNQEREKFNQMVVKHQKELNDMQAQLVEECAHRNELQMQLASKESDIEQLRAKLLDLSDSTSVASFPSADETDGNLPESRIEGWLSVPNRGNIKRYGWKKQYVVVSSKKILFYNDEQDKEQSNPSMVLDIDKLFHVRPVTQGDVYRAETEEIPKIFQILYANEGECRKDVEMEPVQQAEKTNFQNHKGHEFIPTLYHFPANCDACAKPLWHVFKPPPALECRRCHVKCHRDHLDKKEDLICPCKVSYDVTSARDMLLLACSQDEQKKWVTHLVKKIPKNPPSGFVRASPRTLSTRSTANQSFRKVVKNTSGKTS

| AUC0-t/D ([1]; IV 3 mg/kg, male) | AUC0-t/D ([1]; PO 10 mg/kg, female) | AUC0-t/D ([1]; PO 10 mg/kg, male) | AUC0-t/D ([1]; PO 100 mg/kg, male) | Ratio to 10 mg/kg Dose Level, AUC0-∞ ([1]; PO 100 mg/kg, male) | AUC0-t/D ([2]; IV 3 mg/kg) | AUC0-t/D ([2]; PO 10 mg/kg) | concentration required to inhibit half of ROCK2's activity, lower than Fasudil ([3]; head-to-head against Fasudil) | IC50 [5] | IC50 [6] | IC50 [7] | IC50 ([3]; Table 2A, 10 μM ATP) | Structure (SMILES) | Kd [4] |
| --- | --- | --- | --- | --- | --- | --- | --- | --- | --- | --- | --- | --- | --- |
| 3380 (h * ng/ml)/(mg/kg) | 567 (h * ng/ml)/(mg/kg) | 535 (h * ng/ml)/(mg/kg) | 441 (h * ng/ml)/(mg/kg) | 8.00 | 1541 (h * ng/ml)/(mg/kg) | 261 (h * ng/ml)/(mg/kg) | more than 50 fold | – | – | – | – | Cn1c(C(=O)NCc2ccccc2F)cc2ccc(-c3cn[nH]c3)nc21 [Compound 1, N-(2-fluorobenzyl)-1-methyl-6-(1H-pyrazol-4-yl)-1H-pyrrolo[2,3-b]pyridine-2-carboxamide] | > 100000 nM |
| – | – | – | – | – | – | – | – | 32.3 nM | 35.6 nM | 103 nM | 10.1 nM | Cc1[nH]ncc1-c1ccc2cc(C(=O)NCc3c(Cl)cccc3C3(O)CC3)[nH]c2n1 [Compound 6, N-(2-chloro-6-(1-hydroxycyclopropyl)benzyl)-6-(5-methyl-1H-pyrazol-4-yl)-1H-pyrrolo[2,3-b]pyridine-2-carboxamide] | – |
